Entries after “also recorded” stand apart in the source; their conditions may differ.
How the values were obtained:
S. marcescens [1] = settings: supplementation in the drinking water; cited from earlier work
human pathogen community = assay: Mice with 30% hepatectomy and intestinal infection with human pathogen community, polymers in drinking water; assay type: in vivo
Text: (A) FIG. 10(A) provides data showing the extent of cell proliferation in cecal crypts of mice provided with drinking water lacking a phosphorylated PEG (PC 1-3, i.e., pathogen community, plates 1-3 wherein each plate contained 10 or 15 C. elegans worms exposed to pathogens), drinking water containing 3% PPi6 (hexametaphosphate) (PPi6 1-3 refers to plates 1-3 as described above, but exposed to pathogens from mice drinking 3% PPi6), or drinking water containing 1% ABA-PEG20k (ABA-PEG20k-P120 1-3, wherein 1-3 refers to plates 1-3 as described above exposed to pathogen from mice drinking 1% ABA-PEG20k). All groups are SAH+PC (starvation-positive, antibiotic-positive hepatectomy subjects exposed to the pathogen community), POD2 (data from post-operative day 2), and cell proliferation is measured by immunostaining for Ki67.
An experiment was conducted to assess the effects of phosphorylated polymers, i.e., PPi-6 and ABA-PEG20k-Pi20, delivered orally as drinking solutions to mice subjected to 30% hepatectomy and intestinal infection with the human pathogen community. More particularly, the mice were divided into the following groups. Group 1 contained starvation-positive, antibiotic-positive mice receiving no phosphorylated PEG but exposed to the pathogen community. Data from three groups of mice were analyzed. Absolute (FIG. 16A) and relative to crypt depth (FIG. 16B) Ki67 distributions were counted on 90 crypts cumulative of 3 mice in each group. Group 2 contained starvation-positive, antibiotic-positive mice receiving 3% PPi-6 and exposed to the pathogen community. Data from three mice were analyzed, totaling 109 crypts for Ki67 counts. Group 3 contained starvation-positive, antibiotic-positive mice receiving 1% ABA-PEG20k-Pi20 and exposed to the pathogen community. Data from three mice were analyzed, totaling 168 crypts for Ki67 counts.
Stem cell proliferation in cecal crypts, measured by immunostaining for the Ki67 marker, provides an accepted measure of crypt homeostasis.

P. aeruginosa [2] = settings: cited from earlier work
Enterococcus faecalis = assay: Growth of Enterococcus faecalis; assay type: cell-based; settings: in vitro
Procedure: The inability of PPi-6 to suppress the collagenolytic activity of E. faecalis in vitro relates to its inability in vivo to improve anastomotic healing. […] The efficacy of this compound in vivo correlated to its ability to profoundly suppress collagenase activity in these strains […]. […] Actually, PPi-6 at concentrations of >2 mM even suppressed the E. faecalis growth.

E. faecalis E2 = settings: oral administration
Procedure: Next, the compound was tested in a mouse model of E. faecalis-mediated anastomotic leak by providing 1% ABA-PEG20k-Pi20 in drinking water. At post-operative day (POD) 7, anastomotic healing was assessed and the total amount of E. faecalis present at the anastomotic site and the percentage of E. faecalis expressing the collagenolytic phenotype were determined.
Two groups of mice were involved in this study. All mice were subjected to colon anastomosis followed by an enema of E. faecalis E2 at POD1. The first group received water, and the second group received 1% ABA-PEG20k-Pi20 dissolved in water. At the time of sacrifice at POD7, the tissues and luminal contents were collected at the site of anastomosis, homogenized, and used for culturing. Total Enterococcus colonization at the anastomosis site and luminal content were determined by culture analysis using Enterococcal selective plates (BD Difco) on which all Enterococcus species produced black-pigmented colonies. The CFU count was normalized to the sample weight. […] The collagenolytic population was evaluated on Enterococcal plates covered with skim milk on which collagenolytic species produced black colonies with a clearing halo surrounding the colony.

P. aeruginosa [3] = settings: supplementation in the drinking water; cited from earlier work
S. marcescens [4] = settings: cited from earlier work
[5] = test system: Enterococcus faecalis collagenolytic strains (E2 and E27); assay: Collagenase production of collagenolytic Enterococcus faecalis, overnight incubation; assay type: cell-based; settings: in vitro
[6] = 3% PPi6 or 1% polymer in drinking water, POD2, SAH+PC mice

## O=P1([O-])OP(=O)([O-])OP(=O)([O-])OP(=O)([O-])OP(=O)([O-])OP(=O)([O-])O1.[Na+].[Na+].[Na+].[Na+].[Na+].[Na+] [PPi-6, Sodium hexametaphosphate]
S. marcescens [1]
  protection from colonic anastomosis leakage: protects mice from colonic anastomosis leakage
Human pathogen community; 3% PPi6 or 1% ABA-PEG20k-Pi20 in drinking water
  abnormal stem cell proliferation in cecal crypts: inhibit abnormal stem cell proliferation
Human pathogen community; [6]
  height of cell proliferation above cecal crypt base (Ki67): 31.04±1.288 m
  height of proliferating cells relative to cecal crypt depth (Ki67): 35.12±1.332 m
Human pathogen community; post-operative day 2, 3% PPi6 or 1% ABA-PEG20k-Pi20 in drinking water
  mortality rate: 0%
P. aeruginosa [2]
  collagenase production: profoundly suppresses the collagenase production
Enterococcus faecalis
  E. faecalis growth: does not promote a growth
  concentration that suppressed E. faecalis growth: > 2 mM
E. faecalis E2
  anastomotic healing / protection in mouse model: did not improve the anastomotic healing complications
P. aeruginosa [3]
  protection from colonic anastomosis leakage: protects mice from colonic anastomosis leakage
S. marcescens [4]
  collagenase production: profoundly suppresses the collagenase production
[5]
  collagenase production / collagenolytic activity of E. faecalis: only slightly attenuated collagenase production; also recorded: does not affect the collagenolytic activity

Reference: patent US11571443B2, “Phosphorylated tri-block copolymers with antimicrobial properties” (THE UNIVERSITY OF CHICAGO, priority 2016, dated 2023)
